Source: patent US20220193111A1, “Method of Treatment” (The University Court of the University of Edinburgh, priority 2018, published 2022)

Tested on: HUVECs treated with TNF-α/IL-1β
Experiment: Rescue of TNF-α/IL-1β-induced EndMT in HUVECs
Type: cell-based, human
Settings: 10 μM, HUVECs with TNF-α/IL-1β 6 days
Procedure: Human umbilical vein ECs (HUVECs; Lonza) were grown in EGM-2 (comprising EBM-2 with growth factors and other supplements) with 2% Foetal Bovine Serum. Confluent HUVECs were treated with 10 ng/ml TNF-α, IL-1β, TGFβ2 (PeproTech); medium and cytokines were changed every two days. SB431542 (Tocris) has been used at the dose of 10 μM. HEK293T cells (ATCC®, CRL-11268) were cultured in D-MEM with 10% FBS (Life Technologies).
Total RNA was extracted using miReasy kit (Qiagen). Real-time quantification to measure miRNAs was performed with the TaqMan miRNA reverse transcription kit and miRNA assay (Life Technology) using Lightcycler 480 (Roche). miRNAs expression was normalized to the U6 […] (snRU6). For mRNA analysis, cDNA was amplified by quantitative real-time PCR (qPCR) and normalized to 18S ribosomal RNA. Each reaction was performed in triplicate. Quantification was performed by the 2^−ΔΔCt method^52. qPCR was used to measure the expression of miR-148b (miR-148b-3p Thermo Fisher Scientific, Cat. #4426961), snRU6 (ThermoFisher Scientific, Cat. #4331182), TGFβ2, SMAD2, CD31, VE-Cadherin, COL1A1, α-SMA, SLUG, VIM, SNAIL, TWIST, ZEB1/2 and 18S rRNA. Primers are pre-designed from Sigma (KiCgStart™ Primers).
Lipofectamine RNAiMAX (Thermo Fisher Scientific) was used to transfect HUVECs with miR-148b mimic, anti-miR-148b and mimic or anti-miR control (25 nM and […], respectively final concentration) or with siRNA targeting SMAD2 (20 nM final concentration), according to the manufacturer's instructions. jetPEI-HUVECs (Polyplus) was used to transfect HUVECs with DNA plasmids. The following functional assays were performed: BrdU incorporation assay using Cell Proliferation colorimetric assay (Roche); Matrigel assay with HUVECs was performed as previously described using BD Matrigel Basement Membrane Matrix (BD Biosciences)^53.
Proteins were extracted from cultured cells or muscles by using ice-cold buffer A (50 mM Hepes, 150 mM NaCl, 1 mM EDTA, 1 mM EGTA, 25 mM NaF, 5 mM NaPPi, 1%Triton, 1% NP40, 1 mM Na3VO4, 0.25% sodium deoxycholate, 0.5 mM Na-orthovanadate, 1 mM benzamidine, 0.1 mM phenylmethylsulfonyl fluoride). Protein concentration was determined using the Bio-Rad Protein Assay Reagent (Bio-Rad Laboratories, UK). Detection of proteins by Western blot analyses was done following separation of whole cell extracts (20 μg) on SDS-polyacrylamide gels. Proteins were transferred to nitrocellulose membranes and probed with the following antibodies: TGFβ2 (Abcam, ab36495, 1:1000), SMAD2 (SantaCruz Biotechnology, Santa Cruz, Calif., USA; #3102, 1:1000), p-SMAD2 (465/467) (Cell Signaling; #3108, 1:1000); CD31 (Abcam., 1:1000), VE-Cadherin (Abcam, ab33168, 1:1000), COL1A1 (Abcam, ab138492, 1:200), FSP-1 (5100A4; Abcam, ab41532, 1:1000), SLUG (Abcam, ab27568, 1:1000), β-actin (Abcam, ab16039, 1:4000), HDAC3 (GeneTex GTX113303, 1:1000) and GAPDH (GeneTex, GT239, 1:1000) (both used as loading control). For detection, the inventors used secondary antibodies conjugated to horseradish peroxidase which were rabbit anti-mouse (Abcam, ab97046, 1:5000) and goat anti-rabbit (Abcam, ab6721, 1:10000). Detection was developed by chemiluminescence reaction (ECL) (Immunoblot, Millipore, 23225).
Cells were fixed using 4% paraformaldehyde in PBS at room temperature for 15 min. For intracellular staining, fixed cells were permeabilized using 0.5% Triton X-100 in PBS (Sigma-Aldrich) or 0.1% Saponin in PBS at room temperature for 10 min. The blocking of […] antibody activity was performed using 3% bovine serum albumin (BSA) in PBS for 1 hour. Samples were incubated with antibodies to CD31 (Abcam, ab28364, 1:50), VE-cadherin (Abcam, ab33168, 1:100), FSP-1 (Abcam, ab41532, 1:200) and COL1A1 (Abcam, ab138492, 1:100) in PBS containing 1% BSA at 4° C. overnight. […]

NC(=O)c1ccc(-c2nc(-c3ccc4c(c3)OCO4)c(-c3ccccn3)[nH]2)cc1 [SB431542, reference compound]
endothelial markers (CD31, VE-Cadherin) expression: did not rescue | level of SMAD2 phosphorylation: reduced | endothelial markers (CD31, VE-Cadherin) expression (listed as SB43152): did not restore
